Reference: patent US4785080A, “Labeled analytes” (Baker Instruments Corporation, priority 1985, dated 1988)
Values joined by “and” are separate entries in the source; they are usually repeats but may differ in a detail not shown here. Identical values can stand only once.

Legend:
Assay type in all cases: binding
dilantin antibody [1] = assay: Reference displacement curve for dilantin, colorimetric, CentrifiChem 500 (Example XX)
Protocol: This Example illustrates the generation of a reference displacement curve for the dilantin analyte on the CentrifiChem®500 centrifugal fast analyzer. A […] substrate, 5'-O-acetyl-uridine-3'(4-methylumbelliferone-7-yl phosphate), was used.
(§1) The following reagents were prepared:
a. Dilantin S-peptide labeled analyte: Material prepared in the manner described in Examples V-VIII in 0.1M triethanolamine (TEA)-HCl buffer was used.
b. Antibody: Anti-dilantin antisera was diluted by a factor of 1/20 with 0.1M TEA-HCl buffer of pH 7.1;
c. Substrate: Seventeen milligrams of 5'-O-acetyl 2'-O-(tetrahydropyran-2-yl) uridine 3'-(4-methylumbelliferone-7-yl ammonium phosphate) was added to 750 ul 0.05N HCl and stirred at room temperature for 30 min. Sodium acetate buffer, (1.880 ml, 0.1M, pH 5..0), was added. Just before use, 300 ul of this solution was combined with 5.094 ml of 0.1M TEA-HCl buffer of pH 7.1;
d. S-protein: Sigma purified commercial material was diluted by a factor of 1:100 with 0.1M TEA-HCl buffer of pH 7.1 to give a solution having a concentration of 1.53×10^-6 M;
e. Dilantin standards: A stock solution of 5,5-diphenylhydantoin sodium salt (Sigma Lot 64C-0027) was made up by dissolving 48 mg in 1 liter of 0.025N sodium hydroxide. This was diluted by a factor of 1:10 with 0.025N sodium hydroxide to give a solution having 4.8 ug/ml. This was further diluted to give standard solutions having concentrations of 19.1, 47.8, 95.8, 143.6, and 191.5 ng/ml.
The CentrifiChem® 500 centrifugal fast analyzer had the following instrument settings: rotor temp, 30°; filter, nm; To, 10 sec; T, 1 min; ABS 1.0 u; Blank, hold; test mode, Term; print out, ABS; conc. factor, 0; test code 0.
Antibody, dilantin-S-peptide and 16.6 ul of the standard solution were pipetted into the sample well of channels to 16 of the transfer disc. S-protein and 300 ul of substrate were pipetted into each of the corresponding reagent wells of the transfer disc. The transfer disc was placed on the rotor and spun. […] Catalytic activity rates (a.u./min) were obtained frcm a least squares, regression analysis of absorbances as a function of time.

dilantin antibody [2] = assay: Homogeneous immunoassay of dilantin standards and clinical samples, automatic data reduction (Example XXI); conditions: human serum
Protocol: This Example illustrates the design of an assay capable of directly assaying clinical samples, the use of the automatic pipetter (Model P-500) associated with the Centrifichem® 500 centrifugal fast analyzer, and the use of automatic data reduction.
The following reagents were utilized:
a. Labeled Analyte: Dilantin-S-peptide labeled analyte in 0.1 M triethanolamine (TEA)-HCl buffer, prepared in the manner described in Examples V-VIII was used.
b. Antibody: Anti-dilantin antiserum (150 ul) was diluted with 900 ul of 0.1M TEA-HCl buffer of pH 7.1;
c. Substrate: 5'-O-acetyl 2'-O-(tetrahydro pyran-2-yl) uridine 3'-(4-methylumbelliferone-7-yl ammonium phosphate) (6.4 mg) was added to 285.2 ul of 0.05N HCl and stirred at room temperature for 30 minutes. Sodium acetate buffer (714.8 ul, 0.1M, pH 5.0) was then added;
S-protein: A 12.3×10^-5 M solution of Sigma S-protein was made up in 0.1M TEA-HCl buffer (pH 7.1);
e. Dilantin standards: Solutions of 5, 5-diphenylhydantoin sodium salt (Sigma lot 64C-0027) were made up in human serum at concentrations of 2.5, 5.0, 10.0, 20.0 and 30.0 ug/ml.
A mixture of 16 ul S-peptide labeled analyte, 10 ul of human serum albumin, 1430 ul of TEA-HCl buffer, and the substrate solution described in (c.) was prepared (designated Reagent 1). A second mixture consisting of 150 ul of antiserum, 50 ul of S-protein, and 1937.5 ul of TEA buffer was prepared (designated Reagent 2). Using the CentrifiChem® P-500 automatic pipetter, 4 ul of the appropriate standard solution was simultaneously diluted with 45 ul of deionized H2 O and pipetted into the sample well of transfer disc. At the same time, the pipetter delivered 250 ul of Reagent 1 into the reagent well and 100 ul of Reagent 2 into the sample well. Instrumental parameters for the CentrifiChem® 500 centrifugal fast analyzer were the same as that for Example XX with the exception that Test Code 29 was used. This provides for automatic data reduction by the microprocessor unit of the CentrifiChem® 500 instrument.

dilantin antibody [3] = assay: Heterogeneous double antibody solid phase immunoassay of dilantin, free phase catalytic activity (Example XXII)
Protocol: A standard displacement curve is generated from the catalytic activity measurement using 5'-O-acetyluridyl-3'-(4-methylumbelliferone-7-yl) phosphate as a fluorogenic substrate for determination of analyte concentration of the control serum.
as §1
a. Dilantin-S-peptide labeled analyte: Labeled analyte in TEA-HCl buffer was prepared in the manner described in Examples V-VIII; 120 ul was diluted with 2860 ul of TEA-HCl buffer.
b. Antibody: Anti-dilantin antisera (300 ul) was diluted with 1800 ul of TEA-HCl buffer.
c. Solid phase immobilized second antibody: Bio-Rad IMMUNOBEAD™, Lot 17003, 50 mg was reconstituted with 50 ml of TEA-HCl buffer.
d. Substrate: 5'-O-acetyl-2'-O-(tetrahydropyran-2-yl) uridyl-3'-(4-methylumbelliferone-7-yl) ammonium phosphate, 35 mg, was deblocked with 1.5 ml of 0.025M HCl for 40 minutes at room temperature and extracted twice with 5 ml of ether. The residual ether was removed by the stream of air and the acidic solution was buffered with acetate buffer to 100 ml.
e. Acetate buffer: Sodium acetate buffer, 0.1M, pH 5.0.
f. TEA-HCl buffer: Triethanolamine-HCl buffer, 0.05M, pH 7.5.
g. […]
h. S-protein: Sigma purified solution was diluted 1/20 in acetate buffer.
[…] Antibody aliquots of 100 ul were pipetted into each duplicate tube of standards and the resulting mixtures were vortexed and incubated for 20 minutes at room temperature. Dilantin-S-peptide labeled analyte aliquots of 100 ul each were then pipetted into all tubes. The resulting mixture was incubated for 20 mintes at room temperature.
TEA-HCl buffer (108 ul), and Dilantin-S-peptide labeled analyte (100 ul) were pipetted into duplicate assay tubes labeled total. The resulting mixtures were mixed by vortexing and incubated for 20 minutes at room temperature.
Next a second antibody solution of 500 ul each was pipetted into all tubes except for total assay tubes. TEA-HCl buffer (500 ul) was pipetted into total assay tubes. The resulting mixtures were mixed by vortexing and were incubated for 60 minutes at room temperature. All assay tubes except total were centrifuged for 5 minutes at 3000 rpm at 5°-10° C.
The supernatant (free phase) of each tube was transferred into new tubes marked accordingly. The solid phase was resuspended with 0.5 ml of TEA buffer in each tube and centrifuged as above. The supernatant was decanted off.
Dose responsive catalytic activity was measured as follows:
An aliquot sample (50 ul each) of the free phase and total were assayed respectively with 1.8 ml of substrate and 50 ul of S-protein, measuring the fluorogenic product formation by emission at 440 nm when the mixture was excited at 325 nm, using a. Farrand Mark 1 fluorimeter.
The raw data were fit by a modified log-logit algorithm where the rates at infinite and 0 standard concentrations are obtained by an iterative procedure. Each data point in the Table represents the mean of duplicate points.

Rate (dilantin antibody [1]; standard 19.1 ng/ml): 0.0154 a.u./min and 0.0171 a.u./min
Rate (dilantin antibody [1]; standard 47.8 ng/ml): 0.0183 a.u./min and 0.0158 a.u./min
Rate (dilantin antibody [1]; standard 95.8 ng/ml): 0.0191 a.u./min and 0.0197 a.u./min
Rate (dilantin antibody [1]; standard 143.6 ng/ml): 0.0204 a.u./min and 0.0180 a.u./min
Rate (dilantin antibody [1]; standard 191.5 ng/ml): 0.0209 a.u./min and 0.0205 a.u./min
Compound: O=C1NC(=O)C(c2ccccc2)(c2ccccc2)N1 [dilantin, 5,5-diphenylhydantoin]
10^3 Response (dilantin antibody [2]; standard 2.5 ug/ml): 230 a.u. and 231 a.u.
10^3 Response (dilantin antibody [2]; standard 5 ug/ml): 252 a.u. and 256 a.u.
10^3 Response (dilantin antibody [2]; standard 10 ug/ml): 358 a.u. and 373 a.u.
10^3 Response (dilantin antibody [2]; standard 20 ug/ml): 512 a.u. and 494 a.u.
10^3 Response (dilantin antibody [2]; standard 30 ug/ml): 525 a.u. and 524 a.u.
Rate, Mean (dilantin antibody [3]; standard 2.5 (ug/ml)): 10.0 na/min.
Rate, Mean (dilantin antibody [3]; standard 5.0 (ug/ml)): 10.5 na/min.
Rate, Mean (dilantin antibody [3]; standard 10.0 (ug/ml)): 14.0 na/min.
Rate, Mean (dilantin antibody [3]; standard 20.0 (ug/ml)): 16.5 na/min.
Rate, Mean (dilantin antibody [3]; standard 30.0 (ug/ml)): 19.0 na/min.
Rate, Mean (dilantin antibody [3]; standard 40.0 (ug/ml)): 20.5 na/min.
